Columns and labels:
MDA-MB-231 [1] = experiment: Apoptosis analysis, Annexin V-FITC/PI FACS; format: cell-based; conditions: MDA-MB-231, 10 μM, 4 h, extrapolated from Fig. 10B
Text: (§1) Apoptosis is a common cell death pathway for chemotherapeutics which can be characterized by distinct morphological features and biochemical mechanisms.[88,89] Apoptosis occurs normally in healthy cells to maintain a healthy population of cells during aging or development of tissues. Some transition metal-based drugs can trigger apoptosis due to […] of p53 dependant pathway (a tumour suppressor gene).[90,91] Populations of apoptotic cells can be determined by containing cells with Annexin V and PI.[92,93] Cells undergoing apoptosis contain ample amount of phosphatidylserine (PS) which can be bound by Annexin V. The Annexin is then labelled with FITC, a green fluorogenic dye which can be visualized by fluorescence activated cell sorting (FACS). PI is used to stain damaged DNA to distinguish apoptotic from necrotic cells. […]
media. […] The plates were read using a Genios plate reader (λ = 570 nm). […]
Cell Viability of 1a-1e and 2a-2e (Suspended Cell Lines). The cell viability of 2a was determined in K562. […]
10% CO 2. […] To each designated well was then added 20 µL of CellTiter-Glo solution and orbitally shaken for 5 minutes and the luminescence (1000 ms integration and 150 ms gain) acquired on a Genios plate reader. […]

MDA-MB-231 [2] = experiment: Immunoblotting of apoptosis proteins; format: cell-based
Text: as §1, with “(FACS).” for “(FACS). PI is used to stain damaged DNA to distinguish apoptotic from necrotic cells.”
positive control. When ready for analysis, the media were removed and the wells washed with 5 mL of PBS. […] The cells were resuspended in 2 mL of fresh media, counted, and reconstituted to a concentration of 1 x 10^5 cells/mL. […]
Compound 2a was prepared as a stock in DMSO and added to the respective wells at the specified concentrations of 0.1, 1, and 10 µM and treated for 12 h. […] The samples were cooled and stored at −20 °C until ready for use. […] Immuno complexes were detected with the ECL detection reagent (BioRad) and analyzed using a BioRad imager with a chemiluminescence filter. […]

C[N+](C)=C1[S][Au-2]2([S]1)[c]1ccccc1Cc1cccc[n+]12.F[P-](F)(F)(F)(F)F (stereo not drawn) [2a]
Increase in apoptotic cells in comparison to control (MDA-MB-231 [1]): 36% | Cleaved PARP expression (immunoblot) (MDA-MB-231 [2]; MDA-MB-231, 0.1, 1, 10 µM, 12 h): unaltered protein expression | Caspase 3 and cleaved caspase 3 expression (immunoblot) (MDA-MB-231 [2]; MDA-MB-231, concentration dependent (0.1, 1, 10 µM, 12 h)): upregulated
